Patent US10844002B2, “Lipids and lipid compositions for the delivery of active agents” (priority 2014, dated 2020)
Marks after values point to notes of the source that are not given here.

What was measured:
RSV F protein = format: in vivo; conditions: Table 4, BALB/c mice, intramuscular; for Log10(IgG titer), RNA (RSV-F), 2 weeks post 2nd immunization: 100 ng dose; for Log10(IgG titer), 1 ng RNA (RSV-F), 2 weeks post 2nd immunization: 1 ng vA375 replicon in LNP, days 0 and 21
[1] = Encapsulation efficiency of RNA replicons (Quant-iT RiboGreen); format: physicochemical; conditions: LNP 40% cationic lipid, 10% DSPC, 48% cholesterol, 2% PEG-DMG; RNA replicon
Description: Briefly, lipids were dissolved in ethanol (2m1), a RNA replicon was dissolved in buffer (2 ml, 100 mM sodium citrate, pH 6) and these were mixed with 2 ml of buffer followed by 1 hour of equilibration. The mixture was then dialized overnight against 1×PBS. The resulting product contained liposomes, with ˜70-95% encapsulation efficiency.
The percentage of encapsulated RNA and RNA concentration were determined by Quant-iT RiboGreen RNA reagent kit (Invitrogen), following manufacturer's instructions. The ribosomal RNA standard provided in the kit was used to generate a standard curve. LNPs were diluted 10× or 100× in 1× TE buffer (from kit) before addition of the dye. Separately, LNPs were diluted 10× or 100× in 1× TE buffer containing 0.5% Triton X before addition of the dye (to disrupt the LNPs and thus to assay total RNA). Thereafter an equal amount of dye was added to each solution and then ˜180 μL of each solution after dye addition was loaded in duplicate into a 96 well tissue culture plate. The fluorescence (Ex 485 nm, Em 528 nm) was read on a microplate reader. All LNP formulations were dosed in vivo based on the encapsulated amount of RNA.

[2] = Measurement of mRNA encapsulation in lipid nanoparticles (Quant-iT Ribogreen); format: physicochemical; conditions: LNP cationic lipid/DSPC/cholesterol/stealth lipid, N:P 4:1, leptin mRNA
Description: All equipment and disposable supplies are certified free of RNase activity by the manufacturer or rendered RNase free by use of the RNaseZap reagent (LifeTechnologies). mRNA is encapsulated at a cationic lipid amine to mRNA phosphate (N:P) molar ratio of 4:1. Lipids (cationic lipid, DSPC, cholesterol and lipidated PEG or stealth lipid) are dissolved in ethanol. The molar ratios are 40:10:38:2, respectively. The mixture is sonicated briefly, then gently agitated for 5 minutes and then maintained at 37° C. until use. mRNA is exchanged into citrate buffer pH 5.8-6.0 by use of Amicon Ultra-15 centrifugal concentrators, and the final concentration is adjusted to 0.5 mg/ml and held at 37° C. until use. An equal volume of lipids in ethanol, mRNA in citrate buffer, and citrate buffer alone are drawn into disposable syringes. Tubing leading from syringes containing lipids and mRNA are attached to the T junction, and tubing leading from the syringe containing citrate buffer alone is paired with the tubing exiting the T-junction over a collection vessel containing a stir bar on an active stir plate. Syringes are placed in a syringe pump set to expel contents at a flow rate of 1 ml per minute.
The pump is activated, and the collected mRNA in lipid nanoparticles is transferred to SnakeSkin dialysis tubing (10,000 MWCO, Thermo Scientific). Material is dialyzed against RNAse- and pyrogen-free 1× phosphate buffered saline overnight at 4° C.
Percent encapsulation of mRNA in lipid nanoparticles is determined using the Quant-iT Ribogreen RNA Assay kit (Life Technologies). The LNP-mRNA suspension is assayed in buffer (mRNA outside the particle), and buffer plus Triton X-100 detergent (total mRNA). The difference calculated is the mRNA inside the particle. Prepare a 1000 ng/mL stock from the RNA provided in the kit and use this to generate a standard curve (0 ng/ml, 15.63-1000 ng/ml) in TE and TE+0.75% Triton X-100. Prepare LNP-mRNA samples in TE buffer and TE buffer+0.75% Triton X-100 with appropriate dilution so that reading is in the range of standard curve (400-2,000 fold). In a 384-well plate (Costar non-treated #3573) add 0.04 ml of standard (in duplicate) or sample (in triplicate) per well. Dilute Ribogreen reagent 240-fold in TE buffer and add 0.06 ml per well. Mix contents of wells and measure fluorescence (excitation=480 nm, emission=520 nm). Subtract background values (no RNA) from standard and test sample values and determine the concentrations of RNA in the samples using the standard curves. Determine the percent encapsulation of the sample by dividing the difference in concentrations between sample+triton and sample in buffer alone by the sample+triton concentration.

[3] = Characterization of LNP formulations: Z average particle diameter and polydispersity index; format: physicochemical; conditions: LNP formulation; for Zav (nm): Z average particle diameter; for polydispersity: polydispersity index
Description: The lipid nanoparticles have a size of about 1 to about 2,500 nm, about 1 to about 1,500 nm, about 1 to about 1,000 nm, in a sub-embodiment about 50 to about 600 nm, in a sub-embodiment about 50 to about 400 nm, in a sub-embodiment about 50 to about 250 nm, and in a sub-embodiment about 50 to about 150 nm. Unless indicated otherwise, all sizes referred to herein are the average sizes (diameters) of the fully formed nanoparticle, as measured by dynamic light scattering on a Malvern Zetasizer. The nanoparticle sample is diluted in phosphate buffered saline (PBS) so that the count rate is approximately 200-400 kcts. The data is presented as a weighted average of the intensity measure.

SMILES | Log10(IgG titer), RNA (RSV-F), 2 weeks post 2nd immunization (RSV F protein) | Encapsulation efficiency (RNA %) [1] [%] | % encapsulation (mRNA Leptin) [2] [%] | Log10(IgG titer), 1 ng RNA (RSV-F), 2 weeks post 2nd immunization (RSV F protein) | Zav (nm) [3] [nm] | polydispersity [3]
CCCCC/C=C\C/C=C\CCCCCCCCOc1ccc(OCCCCCCCC/C=C\C/C=C\CCCCC)c(COC(=O)CCN(C)C)c1 [Example 2, 2,5-bis((9Z,12Z)-octadeca-9,12-dien-1-yloxy)benzyl 3-(dimethylamino)propanoate] | 4.14 (100 ng dose)* | 13.1 | – | – | – | –
CCCCC/C=C\C/C=C\CCCCCCCCOc1ccc(OCCCCCCCC/C=C\C/C=C\CCCCC)c(COC(=O)OCCCN(C)C)c1 [Example 3, 2,5-bis((9Z,12Z)-octadeca-9,12-dienyloxy)benzyl 3-(dimethylamino)propyl Carbonate] | 4.77 (100 ng dose)* | 85.0 | – | – | – | –
CCCCCCCCCC(=O)OCCCCCCCCOc1ccc(OCCCCCCCCOC(=O)CCCCCCCCC)c(COC(=O)CCN(C)C)c1 [Example 5] | – | – | 59.0 | – | – | –
CCCCCCCCCC(=O)OCCCCCCCCOc1ccc(OCCCCCCCCOC(=O)CCCCCCCCC)c(COC(=O)C2CCN(C)CC2)c1 [Example 6, ((2-(((1-methylpiperidine-4-carbonyl)oxy)methyl)-1,4-phenylene)bis(oxy))bis(octane-8,1-diyl) bis(decanoate)] | – | 71.3 | – | 4.25 | – | –
CCCCCCCCCC(=O)OCCCCCCCCOc1ccc(OCCCCCCCCOC(=O)CCCCCCCCC)c(COC(=O)CCCN(C)C)c1 [Example 7, ((2-(((4-(dimethylamino)butanoyl)oxy)methyl)-1,4-phenylene)bis(oxy))bis(octane-8,1-diyl) bis(decanoate)] | – | 85.6 | 95.4 | 4.37 | 100.7 | 0.096
CCCCCCCCCC(=O)OCCCCCCCCOc1ccc(OCCCCCCCCOC(=O)CCCCCCCCC)c(COC(=O)C2CCN(C(C)C)CC2)c1 [Example 9, ((2-(((1-isopropylpiperidine-4-carbonyl)oxy)methyl)-1,4-phenylene)bis(oxy))bis(octane-8,1-diyl) bis(decanoate)] | – | 69.1 | – | – | 182.6 | 0.369
CCCCCCCCCC(=O)OCCCCCCCCOc1ccc(OCCCCCCCCOC(=O)CCCCCCCCC)c(COC(=O)OCCCN(C)C)c1 [Example 12, ((2-((((3-(dimethylamino)propoxy)carbonyl)oxy)methyl)-1,4-phenylene)bis(oxy))bis(octane-8,1-diyl) bis(decanoate)] | – | 89.8 | – | 4.40 | 97.3 | 0.116
CCCCCCCCCC(=O)OCCCCCCCCOc1ccc(OCCCCCCCCOC(=O)CCCCCCCCC)c(COC(=O)OCCCN(CC)CC)c1 [Example 13, ((2-((((3-(diethylamino)propoxy)carbonyl)oxy)methyl)-1,4-phenylene)bis(oxy))bis(octane-8,1-diyl) bis(decanoate)] | – | 92.1 | – | – | – | –
CCCCC/C=C\C/C=C\CCCCCCCCOc1cc(COC(=O)OCCCN(C)C)c(OCCCCCCCC/C=C\C/C=C\CCCCC)cc1C [Example 14, 3-(dimethylamino)propyl 4-methyl-2,5-bis((9Z,12Z)-octadeca-9,12-dien-1-yloxy)benzyl Carbonate] | – | 78.3 | 77.9 | 3.85 | 127.7 | 0.102
CCCCC/C=C\C/C=C\CCCCCCCCOc1cc(COC(=O)OCCCCN(C)C)c(OCCCCCCCC/C=C\C/C=C\CCCCC)cc1C [Example 15, 4-(dimethylamino)butyl 4-methyl-2,5-bis((9Z,12Z)-octadeca-9,12-dienyloxy)benzyl Carbonate] | – | 82.6 | – | 2.81 | 138.8 | 0.210
CCCCCCCCOC(CCC(=O)OCCCOc1ccc(OCCCOC(=O)CCC(OCCCCCCCC)OCCCCCCCC)c(COC(=O)CCCN(C)C)c1)OCCCCCCCC [Example 20, ((2-(((4-(Dimethylamino)butanoyl)oxy)methyl)-1,4-phenylene)bis(oxy))bis(propane-3,1-diyl) bis(4,4-bis(octyloxy)butanoate)] | – | – | 88.4 | – | – | –
CCCCCCCCOC(CCC(=O)OCCCCCOc1ccc(OCCCCCOC(=O)CCC(OCCCCCCCC)OCCCCCCCC)c(COC(=O)CCCN(C)C)c1)OCCCCCCCC [Example 21, ((2-(((4-(Dimethylamino)butanoyl)oxy)methyl)-1,4-phenylene)bis(oxy))bis(pentane-5,1-diyl) bis(4,4-bis(octyloxy)butanoate)] | – | – | 79.8 | – | – | –
CCCCCCCCOC(CCC(=O)OCCCCCOc1ccc(OCCCCCOC(=O)CCC(OCCCCCCCC)OCCCCCCCC)c(COC(=O)CCCN(CC)CC)c1)OCCCCCCCC [Example 22, ((2-(((4-(diethylamino)butanoyl)oxy)methyl)-1,4-phenylene)bis(oxy))bis(pentane-5,1-diyl) bis(4,4-bis(octyloxy)butanoate)] | – | – | 86.0 | – | – | –
CCCCCCCCOC(CCC(=O)OCCCCCOc1ccc(OCCCCCOC(=O)CCC(OCCCCCCCC)OCCCCCCCC)c(COC(=O)C2(C)CCN(C)CC2)c1)OCCCCCCCC [Example 23, ((2-(((1,4-Dimethylpiperidine-4-carbonyl)oxy)methyl)-1,4-phenylene)bis(oxy))bis(pentane-5,1-diyl) bis(4,4-bis(octyloxy)butanoate)] | – | – | 84.3 | – | – | –
CCCCCCCCCC(=O)OCCCCCCCCOc1ccc(COC(=O)C2(C)CCN(C)CC2)c(OCCCCCCCCOC(=O)CCCCCCCCC)c1 [Example 26, ((4-(((1,4-Dimethylpiperidine-4-carbonyl)oxy)methyl)-1,3-phenylene)bis(oxy))bis(octane-8,1-diyl) bis(decanoate)] | – | – | 90.8 | – | – | –
CCCCCCCCCC(=O)OCCCCCCCCOc1ccc(COC(=O)CCCN(C)C)c(OCCCCCCCCOC(=O)CCCCCCCCC)c1 [Example 27, ((4-(((4-(Dimethylamino)butanoyl)oxy)methyl)-1,3-phenylene)bis(oxy))bis(octane-8,1-diyl) bis(decanoate)] | – | – | 95.2 | – | – | –
CCCCCCCCCC(=O)OCCCCCCCCOc1ccc(COC(=O)CCCN(CC)CC)c(OCCCCCCCCOC(=O)CCCCCCCCC)c1 [Example 28, ((4-(((4-(Diethylamino)butanoyl)oxy)methyl)-1,3-phenylene)bis(oxy))bis(octane-8,1-diyl) bis(decanoate)] | – | – | 93.6 | – | – | –
